Source: patent US10899738B2 (THE REGENTS OF THE UNIVERSITY OF MICHIGAN, priority 2016, dated 2021)
pIC50: −log10 of the molar value.

What follows are molecules tested against menin protein (Homo sapiens (Human), UniProt O00255) (assay: biochemical). Settings: FP competitive binding; menin protein 4 nM, FAM-MM2 probe 2 nM.
Format: binding
Method in brief: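 Test compounds displaced FAM-MM2 (2 nM) from 4 nM menin after 30 min equilibration at room temperature in PBS buffer containing bovine γ-globulin, 4% DMSO and Triton X-100. Binding was followed by fluorescence polarization. Competition curves were fitted by nonlinear regression to give IC50 and Ki.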

menin protein, sequence (O00255 whole entry): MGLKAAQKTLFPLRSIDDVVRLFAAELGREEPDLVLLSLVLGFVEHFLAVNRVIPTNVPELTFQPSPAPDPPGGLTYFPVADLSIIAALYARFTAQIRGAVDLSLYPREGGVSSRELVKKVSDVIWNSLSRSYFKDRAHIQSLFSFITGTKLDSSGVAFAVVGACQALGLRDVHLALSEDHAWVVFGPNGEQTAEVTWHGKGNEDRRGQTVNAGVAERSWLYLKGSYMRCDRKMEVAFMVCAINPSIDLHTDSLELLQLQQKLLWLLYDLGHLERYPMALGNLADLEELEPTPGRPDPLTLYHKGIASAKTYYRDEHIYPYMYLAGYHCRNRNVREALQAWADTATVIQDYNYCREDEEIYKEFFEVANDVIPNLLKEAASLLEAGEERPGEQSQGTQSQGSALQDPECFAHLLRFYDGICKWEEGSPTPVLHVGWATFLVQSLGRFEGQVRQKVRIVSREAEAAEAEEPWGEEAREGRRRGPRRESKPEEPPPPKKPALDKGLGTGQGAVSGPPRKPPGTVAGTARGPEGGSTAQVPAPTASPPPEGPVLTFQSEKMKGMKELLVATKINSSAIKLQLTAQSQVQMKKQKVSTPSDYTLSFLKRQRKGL

Menin Binding Affinity IC50 (μM)	Structure (SMILES)
No inhibition	c1ccc2c(c1)CCNC2(c1ccncc1)C1CCCC1 (stereo not shown) [compound 78, 1-cyclopentyl-1-(pyridin-4-yl)-1,2,3,4-tetrahydroisoquinoline]

Same assay, conditions: FP competitive binding; menin protein 4 nM, FAM-MM2 probe 2 nM; read-out: Menin Binding Affinity IC50

Structure (SMILES)	pIC50
CN1Cc2ccccc2C(C2CCCC2)(C2CCN(CCCOc3ccc(S(C)(=O)=O)cc3)CC2)C1 (stereo not shown) [compound 68, 4-cyclopentyl-2-methyl-4-(1-(3-(4-(methylsulfonyl)phenoxy)propyl)piperidin-4-yl)-1,2,3,4-tetrahydroisoquinoline]	6.74
CCS(=O)(=O)c1ccc(N2CC(CN3CCC(C4(C5CCCC5)CN(C)Cc5ccccc54)CC3)C2)cc1 (stereo not shown) [compound 69, 4-cyclopentyl-4-(1-((1-(4-(ethylsulfonyl)phenyl)azetidin-3-yl)methyl)piperidin-4-yl)-2-methyl-1,2,3,4-tetrahydroisoquinoline]	7.52
CN1Cc2cccc(Cl)c2C(C2CCCC2)(C2CCN(CCCOc3ccc(C#N)cc3)CC2)C1 (stereo not shown) [compound 34, 4-(3-(4-(5-chloro-4-cyclopentyl-2-methyl-1,2,3,4-tetrahydroisoquinolin-4-yl)piperidin-1-yl)propoxy)benzonitrile]	5.74
O=S(=O)(c1ccncc1)c1ccc(N2CC(CN3CCC(C4(C5CCCC5)CN(CC5COC5)Cc5ccccc54)CC3)C2)cc1 (stereo not shown) [compound 52, 4-cyclopentyl-2-(oxetan-3-ylmethyl)-4-(1-((1-(4-(pyridin-4-ylsulfonyl)phenyl)azetidin-3-yl)methyl)piperidin-4-yl)-1,2,3,4-tetrahydroisoquinoline]	7.60
CNC(=O)N[C@H]1CCC[C@@H]1C(CNC(=O)c1cocn1)(c1ccccc1)C1CCN(CC2CN(c3ccc(C#N)cc3)C2)CC1 (mixture of isomers) [compound 378, rac-N-(2-(1-((1-(4-cyanophenyl)azetidin-3-yl)methyl)piperidin-4-yl)-2-((1R,2S)-2-(3-methylureido)cyclopentyl)-2-phenylethyl)oxazole-4-carboxamide]	7.49
O=S(=O)(c1ccccc1)c1ccc(N2CC(CN3CCC(C(CN4CCCC4)(C4=CCCC4)c4ccccc4)CC3)C2)cc1 (stereo not shown) [compound 355, 4-(1-(cyclopent-1-en-1-yl)-1-phenyl-2-(pyrrolidin-1-yl)ethyl)-1-((1-(4-(phenylsulfonyl)phenyl)azetidin-3-yl)methyl)piperidine]	7.35
CS(=O)(=O)CO[C@@H]1CCC[C@H]1C(C#N)(c1ccccc1)C1CCN(CC2CN(c3ccc(S(=O)(=O)c4ccncc4)cc3)C2)CC1 (mixture of isomers) [compound 254, rac-2-((1S,2R)-2-((methylsulfonyl)methoxy)cyclopentyl)-2-phenyl-2-(1-((1-(4-(pyridin-4-ylsulfonyl)phenyl)azetidin-3-yl)methyl)piperidin-4-yl)acetonitrile]	4.63
N#Cc1ccc(OCCCN2CCC(C3(C4CCCC4)C(=O)NCc4ccccc43)CC2)cc1 (stereo not shown) [compound 24, 4-(3-(4-(4-cyclopentyl-3-oxo-1,2,3,4-tetrahydroisoquinolin-4-yl)piperidin-1-yl)propoxy)benzonitrile]	6.38
CN1CCC(C2(C3CCCC3)NCCc3ccccc32)CC1 (stereo not shown) [compound 75, 1-cyclopentyl-1-(1-methylpiperidin-4-yl)-1,2,3,4-tetrahydroisoquinoline]	3.85
CCN1Cc2ccccc2C(C2CCCC2)(C2CCN(CC3CN(c4ccc(S(=O)(=O)C5CC5)cc4C)C3)CC2)C1 (stereo not shown) [compound 96, 4-cyclopentyl-4-(1-((1-(4-(cyclopropylsulfonyl)-2-methylphenyl)azetidin-3-yl)methyl)piperidin-4-yl)-2-ethyl-1,2,3,4-tetrahydroisoquinoline]	6.23
CC(=O)O[C@H]1CCC[C@@H]1C(C#N)(c1ccccc1F)C1CCN(CCCOc2ccc(C#N)cc2)CC1 (mixture of isomers) [compound 308, rac-(1S,2R)-2-(cyano(1-(3-(4-cyanophenoxy)propyl)piperidin-4-yl)(2-fluorophenyl)methyl)cyclopentyl acetate]	7.18
CC(=O)O[C@H]1CCC[C@@H]1C(C#N)(c1cccc(F)c1)C1CCN(CC2CN(c3ccc(CC(F)(F)F)cc3)C2)CC1 (mixture of isomers) [compound 419, rac-(1S,2R)-2-(cyano(3-fluorophenyl)(1-((1-(4-(2,2,2-trifluoroethyl)phenyl)azetidin-3-yl)methyl)piperidin-4-yl)methyl)cyclopentyl acetate]	6.53
CCCC(=O)N1CCCCC1C1(C2CCN(CCCOc3ccc(C#N)cc3)CC2)CN(C)Cc2ccccc21 (stereo not shown) [compound 302, 4-(3-(4-(4-(1-butyrylpiperidin-2-yl)-2-methyl-1,2,3,4-tetrahydroisoquinolin-4-yl)piperidin-1-yl)propoxy)benzonitrile]	5.19
CCN1Cc2ccccc2C(C2CCCC2)(C2CCN(CC3CN(c4ccc(S(=O)(=O)c5ccnc(C)c5)cc4)C3)CC2)C1 (stereo not shown) [compound 154, 4-cyclopentyl-2-ethyl-4-(1-((1-(4-((2-methylpyridin-4-yl)sulfonyl)phenyl)azetidin-3-yl)methyl)piperidin-4-yl)-1,2,3,4-tetrahydroisoquinoline]	8.22
COC(=O)N[C@H]1CCC[C@@H]1C(C#N)(c1ccccc1)C1CCN(CC2CN(c3ccc(C(F)(F)F)cc3)C2)CC1 (mixture of isomers) [compound 401, methyl rac-((1S,2R)-2-(cyano(phenyl)(1-((1-(4-(trifluoromethyl)phenyl)azetidin-3-yl)methyl)piperidin-4-yl)methyl)cyclopentyl) carbamate]	7.05
N#Cc1ccc(OCCCN2CCC(C3(C4CCCC4)NCCc4ccccc43)C2)cc1 (stereo not shown) [compound 108, 4-(3-(3-(1-cyclopentyl-1,2,3,4-tetrahydroisoquinolin-1-yl)pyrrolidin-1-yl)propoxy)benzonitrile]	4.25
N#Cc1ccc(OCCCN2CCC(C(C#N)(Cc3ccncc3)c3ccccc3)CC2)cc1 (stereo not shown) [compound 344, 4-(3-(4-(1-cyano-1-phenyl-2-(pyridin-4-yl)ethyl)piperidin-1-yl)propoxy)benzonitrile]	3.74
N#CC(c1ccccc1)(C1CCN(CC2CN(c3ccc(S(=O)(=O)c4ccncc4)cc3)C2)CC1)[C@@H]1CCC[C@H]1OC(=O)C1CCC1 (mixture of isomers) [compound 208, rac-(1R,2S)-2-(cyano(phenyl)(1-((1-(4-(pyridin-4-ylsulfonyl)phenyl)azetidin-3-yl)methyl)piperidin-4-yl)methyl)cyclopentyl cyclobutanecarboxylate]	6.36
N#Cc1ccc(OCCCN2CC=C(C3(C4CCCC4)NCCc4ccccc43)CC2)cc1 (stereo not shown) [compound 79, 4-(3-(4-(1-cyclopentyl-1,2,3,4-tetrahydroisoquinolin-1-yl)-3,6-dihydropyridin-1(2H)-yl)propoxy)benzonitrile]	6.15
CC(C)CCC1(C2CCN(CCCOc3ccc(C#N)cc3)CC2)NCCc2ccccc21 (stereo not shown) [compound 250, 4-(3-(4-(1-isopentyl-1,2,3,4-tetrahydroisoquinolin-1-yl)piperidin-1-yl)propoxy)benzonitrile]	5.33
N#Cc1ccc(N2CCC(N3CCC(C4(C5CCCC5)NCCc5ccccc54)CC3)CC2)cc1 (stereo not shown) [compound 55, 4-(4-(1-cyclopentyl-1,2,3,4-tetrahydroisoquinolin-1-yl)-[1,4′-bipiperidin]-1′-yl)benzonitrile]	6.17
